From patent publication US6462038B1, “Androgen receptor modulator compounds and methods” (Ligand Pharmaceuticals, Inc., priority 1999, dated 2002)
pEC50, pIC50: −log10 of the molar value. Where two headings read alike, the source gives them in different places.

Tests used:
[1] = target: T1, hAR (Homo sapiens, UniProt P10275); experiment: co-transfection assay, AR antagonist (in presence of DHT), CV-1 cells; format: cell-based; conditions: for AR Antagonist CV-1 Cells Efficacy (%): maximal inhibition
T1 construct: expressed in transfected cells; host or cells: CV-1 cells (African green monkey kidney fibroblasts)
T1 sequence (P10275 1-920): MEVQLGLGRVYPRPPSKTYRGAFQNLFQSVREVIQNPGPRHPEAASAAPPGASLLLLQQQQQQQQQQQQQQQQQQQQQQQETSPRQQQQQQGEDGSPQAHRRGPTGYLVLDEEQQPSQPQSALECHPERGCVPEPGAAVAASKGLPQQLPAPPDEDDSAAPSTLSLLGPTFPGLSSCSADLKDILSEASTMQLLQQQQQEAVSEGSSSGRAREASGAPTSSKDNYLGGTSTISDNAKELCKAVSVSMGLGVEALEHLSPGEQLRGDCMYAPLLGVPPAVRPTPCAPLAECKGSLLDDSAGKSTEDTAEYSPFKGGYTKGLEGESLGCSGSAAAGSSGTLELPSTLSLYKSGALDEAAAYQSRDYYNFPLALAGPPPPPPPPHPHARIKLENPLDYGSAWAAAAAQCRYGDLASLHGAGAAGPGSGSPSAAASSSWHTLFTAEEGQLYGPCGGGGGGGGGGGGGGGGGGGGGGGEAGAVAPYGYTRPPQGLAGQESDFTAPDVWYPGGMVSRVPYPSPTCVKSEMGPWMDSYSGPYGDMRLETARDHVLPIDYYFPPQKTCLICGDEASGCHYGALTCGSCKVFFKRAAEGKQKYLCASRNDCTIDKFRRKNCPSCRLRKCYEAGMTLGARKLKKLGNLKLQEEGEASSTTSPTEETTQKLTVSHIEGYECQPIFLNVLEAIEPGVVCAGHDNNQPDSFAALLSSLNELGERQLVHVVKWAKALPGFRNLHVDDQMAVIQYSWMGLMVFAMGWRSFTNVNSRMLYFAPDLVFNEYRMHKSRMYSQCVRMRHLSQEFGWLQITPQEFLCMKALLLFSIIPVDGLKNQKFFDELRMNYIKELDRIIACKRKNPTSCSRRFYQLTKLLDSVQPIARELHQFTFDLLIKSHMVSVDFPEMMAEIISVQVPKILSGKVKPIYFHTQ

[2] = target: T1, hAR; experiment: co-transfection assay, AR agonist, CV-1 cells; format: cell-based; conditions: for AR Agonist CV-1 Cells Efficacy (%): relative to maximum LUC production by reference agonist; for EC50: AR Agonist CV-1 Cells Potency (nM)

| Structure (SMILES) | pIC50 [1] | AR Antagonist CV-1 Cells Efficacy (%) ([1]; hAR in CV-1 cells, DHT at EC50) | pEC50 [2] | AR Agonist CV-1 Cells Efficacy (%) ([2]; hAR in CV-1 cells) | EC50 ([2]; hAR in CV-1 cells) [nM] | pIC50 ([1]; read-out: AR Antagonist CV-1 Cells Potency, hAR in CV-1 cells, DHT at EC50) | EC50 [2] [nM] |
| --- | --- | --- | --- | --- | --- | --- | --- |
| CC(C)CN1CCOc2cc3c(cc21)c(C(F)(F)F)cc(=O)n3C [Compound 113, 1,2,3,6-Tetrahydro-1-isobutyl-6-methyl-9-(trifluoromethyl)-7H-[1,4]oxazino[3,2-g]quinolin-7-one] | 7.21 | 78% | < 5.00 | na (na = not active (i.e. efficacy of < 20 and potency of > 10,000 nM for the cotransfection assay, and Ki > 1000 nM for the binding assay)) |  |  |  |
| CC1COc2cc3[nH]c(=O)cc(C(F)(F)F)c3cc2N1CC(F)(F)F (single isomer, unassigned; (+)) [Compound 124, (+)-1,2,3,6-Tetrahydro-2-methyl-1-(2,2,2-trifluoroethyl)-9-(trifluoromethyl)-7H-[1,4]oxazino[3,2-g]quinolin-7-one] | < 5.00 | na (na = not active (i.e. efficacy of < 20 and potency of > 10,000 nM for the cotransfection assay, and Ki > 1000 nM for the binding assay)) |  | 54% | 3.6 |  |  |
| CC[C@H]1Oc2cc3[nH]c(=O)cc(C(F)(F)F)c3cc2N(CC(F)(F)F)[C@H]1C (racemic) [Compound 129, (±)-cis-3-Ethyl-1,2,3,6-tetrahydro-2-methyl-1-(2,2,2-trifluoroethyl)-9-(trifluoromethyl)-7H-[1,4]oxazino[3,2-g]quinolin-7-one] | 7.89 | 76% | 5.87 | 42% |  |  |  |
| O=c1cc(C(F)(F)F)c2cc3c(cc2[nH]1)OCCN3Cc1ccccn1 [Compound 122, 1,2,3,6-Tetrahydro-1-(2-pyridylmethyl)-9-(trifluoromethyl)-7H-[1,4]oxazino[3,2-g]quinolin-7-one] | 6.20 | 75% | < 5.00 | na (na = not active (i.e. efficacy of < 20 and potency of > 10,000 nM for the cotransfection assay, and Ki > 1000 nM for the binding assay)) |  |  |  |
| Cn1c(=O)cc(C(F)(F)F)c2cc3c(cc21)OCCN3CC(F)(F)F [Compound 109, 1,2,3,6-Tetrahydro-6-methyl-1-(2,2,2-trifluoroethyl)-9-(trifluoromethyl)-7H-[1,4]oxazino[3,2-g]quinolin-7-one] | 7.62 | 57% | < 5.00 | na (na = not active (i.e. efficacy of < 20 and potency of > 10,000 nM for the cotransfection assay, and Ki > 1000 nM for the binding assay)) |  |  |  |
| O=c1cc(C(F)(F)F)c2cc3c(cc2[nH]1)OCC(CO)N3CC(F)(F)F (racemic) [Compound 130, (±)-1,2,3,6-Tetrahydro-2-(hydroxymethyl)-1-(2,2,2-trifluoroethyl)-9-(trifluoromethyl)-7H-[1,4]oxazino[3,2-g]quinolin-7-one] |  | na (na = not active (i.e. efficacy of < 20 and potency of > 10,000 nM for the cotransfection assay, and Ki > 1000 nM for the binding assay)) |  | 48% |  |  |  |
| FC(F)(F)CN1CCOc2cc3[nH]c(=S)cc(C(F)(F)F)c3cc21 [Compound 110, 1,2,3,6-Tetrahydro-1-(2,2,2-trifluoroethyl)-9-(trifluoromethyl)-7H-[1,4]oxazino[3,2-g]quinolin-7-thione] | < 5.00 | na (na = not active (i.e. efficacy of < 20 and potency of > 10,000 nM for the cotransfection assay, and Ki > 1000 nM for the binding assay)) | 7.36 | 90% |  |  |  |
| O=c1cc(C(F)F)c2cc3c(cc2[nH]1)OCCN3CC(F)(F)F [Compound 108, 9-(Difluoromethyl)-1,2,3,6-tetrahydro-1-(2,2,2-trifluoroethyl)-7H-[1,4]oxazino[3,2-g]quinolin-7-one] | < 5.00 | na (na = not active (i.e. efficacy of < 20 and potency of > 10,000 nM for the cotransfection assay, and Ki > 1000 nM for the binding assay)) | 7.85 | 80% |  |  |  |
| CC1COc2cc3[nH]c(=O)cc(C(F)(F)F)c3cc2N1CC(F)(F)F (single isomer, unassigned; (-)) [Compound 125, (−)-1,2,3,6-Tetrahydro-2-methyl-1-(2,2,2-trifluoroethyl)-9-(trifluoromethyl)-7H-[1,4]oxazino[3,2-g]quinolin-7-one] |  | na (na = not active (i.e. efficacy of < 20 and potency of > 10,000 nM for the cotransfection assay, and Ki > 1000 nM for the binding assay)) |  | 74% | 0.7 | < 5.00 |  |
| O=c1[nH]c2cc3c(cc2c(C(F)(F)F)c1F)N(CC(F)(F)F)CCO3 [Compound 106, 8-Fluoro-1,2,3,6-tetrahydro-1-(2,2,2-trifluoroethyl)-9-(trifluoromethyl)-7H-[1,4]oxazino[3,2-g]quinolin-7-one] | < 5.00 | na (na = not active (i.e. efficacy of < 20 and potency of > 10,000 nM for the cotransfection assay, and Ki > 1000 nM for the binding assay)) | 8.40 | 80% |  |  |  |
| CC[C@@H]1Oc2cc3[nH]c(=O)cc(C(F)(F)F)c3cc2N(CC(F)(F)F)[C@H]1C (racemic) [Compound 128, (±)-trans-3-Ethyl-1,2,3,6-tetrahydro-2-methyl-1-(2,2,2-trifluoroethyl)-9-(trifluoromethyl)-7H-[1,4]oxazino[3,2-g]quinolin-7-one] | 5.87 | 42% | < 5.00 | na (na = not active (i.e. efficacy of < 20 and potency of > 10,000 nM for the cotransfection assay, and Ki > 1000 nM for the binding assay)) |  |  |  |
| CC(=O)OCC1COc2cc3[nH]c(=O)cc(C(F)(F)F)c3cc2N1CC(F)(F)F (racemic) [Compound 131, (±)-1,2,3,6-Tetrahydro-2-(acetoxymethyl)-1-(2,2,2-trifluoroethyl)-9-(trifluoromethyl)-7H-[1,4]oxazino[3,2-g]quinolin-7-one] | < 5.00 | na (na = not active (i.e. efficacy of < 20 and potency of > 10,000 nM for the cotransfection assay, and Ki > 1000 nM for the binding assay)) | 7.51 | 46% |  |  |  |
| O=c1cc(C(F)(F)F)c2cc3c(cc2[nH]1)OCCN3 [Compound 120, 1,2,3,6-Tetrahydro-9-(trifluoromethyl)-7H-[1,4]oxazino[3,2-g]quinolin-7-one] |  | 69% |  | na (na = not active (i.e. efficacy of < 20 and potency of > 10,000 nM for the cotransfection assay, and Ki > 1000 nM for the binding assay)) |  |  |  |
| COCC1COc2cc3[nH]c(=O)cc(C(F)(F)F)c3cc2N1CC(F)(F)F (racemic) [Compound 132, (±)-1,2,3,6-Tetrahydro-2-(methoxymethyl)-1-(2,2,2-trifluoroethyl)-9-(trifluoromethyl)-7H-[1,4]oxazino[3,2-g]quinolin-7-one] | < 5.00 | na (na = not active (i.e. efficacy of < 20 and potency of > 10,000 nM for the cotransfection assay, and Ki > 1000 nM for the binding assay)) |  | 72% |  |  | 1.7 |
| O=c1[nH]c2cc3c(cc2c(C(F)(F)F)c1Cl)N(CC(F)(F)F)CCO3 [Compound 107, 8-Chloro-1,2,3,6-tetrahydro-1-(2,2,2-trifluoroethyl)-9-(trifluoromethyl)-7H-[1,4]oxazino[3,2-g]quinolin-7-one] | < 5.00 | na (na = not active (i.e. efficacy of < 20 and potency of > 10,000 nM for the cotransfection assay, and Ki > 1000 nM for the binding assay)) | 7.59 | 92% |  |  |  |
| CCC1COc2cc3[nH]c(=O)cc(C(F)(F)F)c3cc2N1CC(F)(F)F (racemic) [Compound 145, (±)-2-Ethyl-1,2,3,6-tetrahydro-1-(2,2,2-trifluoroethyl)-9-(trifluoromethyl)-7H-[1,4]oxazino[3,2-g]quinolin-7-one] |  | 30% |  | 69% |  |  |  |
